These results are taken from publication PMC6222357, “Liquid Chromatography-Tandem Mass Spectrometry Simultaneous Determination and Pharmacokinetic Study of Fourteen Alkaloid Components in Dog Plasma after Oral Administration of Corydalis bungeana Turcz Extract” (Molecules : A Journal of Synthetic Chemistry and Natural …, 2018).

Series [1] is described as follows: Stability of the analytes in beagle plasma QC samples under different storage conditions. The format is physicochemical, beagle dog. The note with it: n = 6; for Stability (% RE) Long-Term: 2 weeks at −80 °C; for Stability (% RE) Short-Term: 4 h at ambient temperature; for Stability (% RE) Freeze-Thaw: three freeze (−80 °C)-thaw cycles; for Stability (% RE) Post-Preparative: 12 h after sample preparation at 4 °C. The method, then: As illustrated in Table 4. The stability of QC samples at three evaluated concentrations contained low, medium and high under different stored conditions was assessed on the basis of peak areas in comparison with freshly prepared QC sample.
(§1) The stability of the fourteen analytes in beagle dogs investigated by analyzing QC samples of each analyte at three QC levels (LQC, MQC and HQC) and each level contained six replicates. The short-term stability was assessed during storage for 4 h at ambient temperature. The long-term stability was determined after the QC samples had been stored for 2 weeks at −80 °C. The freeze-thaw stability was determined after three freeze at −80 °C and thaw cycles. and post-preparative stability was during storage for 12 h after sample preparation at 4 °C. The room temperature stability for stock solution was determined after storing the sample at 25 °C for 24 h. A series of concentrations of stability testing QC samples was gained by the calibration curve which was established from freshly prepared standard samples.

Series [2] can be described thus: Room temperature stability of stock solution. The settings on record: 25 °C for 24 h, n = 6. Type of series: physicochemical. The method, then: as §1
The nature of series [3]: Pharmacokinetic study in beagle dogs after oral administration of C. bungeana extract (UHPLC-MS/MS of plasma). The settings on record: for AUC(0-inf) / AUC(0-t) / Cmax / Tmax / half-life: male, beagle, dog, plasma, po, 0.12 g/kg; for Shape of plasma concentration-time profile / Time of first peak of plasma concentration-time profile / Time of second peak of plasma concentration-time profile: beagle dog plasma; for Shape of plasma concentration-time profile: oral C. bungeana extract 0.12 g/kg; for Time of first peak of plasma concentration-time profile / Time of second peak of plasma concentration-time profile: oral C. bungeana extract, post-dose.
Protocol: The developed UHPLC-MS/MS method was employed to determine the pharmacokinetics of the fourteen components in C. bungeana after a single oral administration of 0.12 g/kg (equivalent to 1180.8 µg/kg A, 100.8 µg/kg B, 172.8 µg/kg C, 194.4 µg/kg D, 147.6 µg/kg E, 291.6 µg/kg F, 7.2 µg/kg G, 64.8 µg/kg H, 10.8 µg/kg I, 435.6 µg/kg J, 7.2 µg/kg K, 2851.2 µg/kg L, 694.8 µg/kg M, 928.8µg/kg N) to six beagle dogs. […] According to the Meeh-Rubn method, we established a final oral dosage of 0.12 g/kg in dogs. The plasma concentrations of the fourteen components at each time point were detected and the data gained from six beagle dogs were averaged.
Before the experiment, the beagle dogs were fasted for 12 h but given water during the research period. Blood (300 µL) was collected from the forelimb vein plexus at a few specific time points (0.083, 0.25, 0.5, 0.75 and 1, 2, 3, 4, 6, 8, 12, 24 h) after the oral administration of the extract of C. bungeana (0.12 g/kg). After centrifugation at 13,000 rpm for 10 min, the plasma was collected immediately and maintained at −80 °C until sample analysis.
Using a liquid-liquid extraction method, 100 µL of methanol and 50 µL of IS (bifendate) were added to a beagle dog plasma sample (100 µL) followed by vortex for 30 s. Then 3 mL of aether was accurately added and the mixture was vortexed for 60 s. After this step, the samples were put into a centrifuge (XiangYi Technologies, Changsha, Hunan, China). The organic supernatant was pipetted into clean glass tubes individually after centrifugation 3800 rpm for 6 min. The upper organic layer was removed and evaporated to dryness at 40 °C under a stream of nitrogen. The residue was then redissolved with 100 µL of mobile phase (28% acetonitrile), vortexed for 30 s and filtered by a 0.22 µm membrane. A 10 µL aliquot of the solution was injected into the UHPLC-MS/MS system for analysis.
Concentrations of fourteen alkaloids in beagle dog blood were calculated employing the Excel program (Microsoft Corp., Redmond, WA, USA). Pharmacokinetic parameters were calculated using non-compartmental methods. The elimination rate constant (Ke) was calculated employing the linear regression of the terminal points in a semi-log plot of the plasma concentration against time. The elimination half-life (t1/2) was calculated using the formula. t1/2 = 0.693/Ke(1)
The area under the blood concentration versus time curve up to the last quantifiable time point (AUC0→t) was calculated by the linear trapezoidal rule. The area under the plasma concentration –time curve to time infinity (AUC0→∞) was calculated as follows: AUC0→∞ = AUC0→t + Ct/Ke(2)
The maximum observed blood concentration (Cmax) and the time to reach maximum observed blood concentration (Tmax) were obtained directly from the concentration-time curve.

On to `COc1ccc2cc3[n+](cc2c1O)CCc1cc2c(cc1-3)OCO2` [Berberrubine, berberrubine], for which the figures for the “Stability (% RE) Long-Term” value in series [1] (high QC in beagle plasma), in series [1] (low QC in beagle plasma) and in series [1] (medium QC in beagle plasma) were 11.01 % RE, 11.85 % RE and 3.75 % RE, respectively. The “Stability (% RE) Short-Term” value in series [1] (high QC in beagle plasma) was determined as 10.78 % RE; in series [1] (low QC in beagle plasma) it was 11.76 % RE; in series [1] (medium QC in beagle plasma), 5.82 % RE. In addition, the “Stability (% RE) Freeze-Thaw” value in series [1] (high QC in beagle plasma) was determined as 10.06 % RE; in series [1] (low QC in beagle plasma), 12.88 % RE; in series [1] (medium QC in beagle plasma), 5.15 % RE. Further, the “Stability (% RE) Post-Preparative” value in series [1] (high QC) is reported as 5.08 % RE; in series [1] (low QC) it was 5.99 % RE; in series [1] (medium QC) it was 7.97 % RE. Moreover, the “Stability (% RE) Room Temperature for Stock-Solution” value (from here on “Stability (% RE) Room Temperature”) in series [2] (high QC level) is given as 3.65 % RE; in series [2] (low QC level), −2.05 % RE; in series [2] (medium QC level), 1.25 % RE. The AUC(0-inf) in series [3] is 1200 ± 86.3 ng·h/mL. Further, the AUC(0-t) in series [3] was 1160 ± 94.2 ng·h/mL. Besides, the concentration in series [3] peaked (Cmax) at 450 ± 61.6 ng/mL. Moreover, in series [3], the Tmax was found to be 0.96 ± 0.1 h. The molecule also had a half-life in series [3] of 4.88 ± 1.72 h.
For `COc1cc2c(cc1O)-c1cc3ccc(OC)c(OC)c3c[n+]1CC2` [Columbamine, columbamine], in series [1] (high QC in beagle plasma), the “Stability (% RE) Long-Term” value is given as 10.24 % RE, the “Stability (% RE) Short-Term” value was 9.67 % RE and the “Stability (% RE) Freeze-Thaw” value was 5.60 % RE. Further, the “Stability (% RE) Post-Preparative” value in series [1] (high QC) worked out at 12.44 % RE. Also, in series [1] (low QC in beagle plasma), the “Stability (% RE) Long-Term” value is on record as 9.66 % RE, the “Stability (% RE) Short-Term” value stood at 8.47 % RE and the “Stability (% RE) Freeze-Thaw” value is 11.50 % RE. Also, the “Stability (% RE) Post-Preparative” value in series [1] (low QC) was 8.80 % RE. For the same molecule, in series [1] (medium QC in beagle plasma), the “Stability (% RE) Long-Term” value was 11.77 % RE, the “Stability (% RE) Short-Term” value is recorded as 4.02 % RE and the “Stability (% RE) Freeze-Thaw” value amounted to 12.73 % RE. In addition, in series [1] (medium QC), the “Stability (% RE) Post-Preparative” value was found to be 5.50 % RE. In addition, the “Stability (% RE) Room Temperature” value in series [2] (high QC level) was determined as 2.50 % RE. Moreover, in series [2] (low QC level), the “Stability (% RE) Room Temperature” value was 4.02 % RE. For the same molecule, in series [2] (medium QC level), the “Stability (% RE) Room Temperature” value came out at 1.62 % RE. Further, in series [3], the “Shape of plasma concentration-time profile” value (“Shape” below) was “conspicuous bimodal phenomenon”, the “Time of first peak of plasma concentration-time profile” value lay within 0.5 to 1 h, the “Time of second peak of plasma concentration-time profile” value lay within 4 to 8 h and the AUC(0-inf) is 7030 ± 290 ng·h/mL. In series [3], the AUC(0-t) came to 6830 ± 170 ng·h/mL, the peak level (Cmax) was 2130 ± 196 ng/mL, the Tmax worked out at 0.92 ± 0.13 h and the half-life was 2.87 ± 0.42 h.
As to `CN1Cc2c(ccc3c2OCO3)[C@@]2(C)[C@@H](O)Cc3cc4c(cc3[C@@H]12)OCO4` [Corynoline, corynoline], in series [1] (high QC in beagle plasma), the “Stability (% RE) Long-Term” value amounted to 9.74 % RE, the “Stability (% RE) Short-Term” value came to 6.81 % RE and the “Stability (% RE) Freeze-Thaw” value is listed as 7.95 % RE. Moreover, the “Stability (% RE) Post-Preparative” value in series [1] (high QC) is recorded as 5.40 % RE. Further, in series [1] (low QC in beagle plasma), the “Stability (% RE) Long-Term” value is given as 13.95 % RE, the “Stability (% RE) Short-Term” value was −2.63 % RE and the “Stability (% RE) Freeze-Thaw” value was found to be 6.11 % RE. Besides, the “Stability (% RE) Post-Preparative” value in series [1] (low QC) is on record as 7.14 % RE. In series [1] (medium QC in beagle plasma), the “Stability (% RE) Long-Term” value was 6.81 % RE, the “Stability (% RE) Short-Term” value came out at 9.25 % RE and the “Stability (% RE) Freeze-Thaw” value is on record as 6.78 % RE. In addition, the “Stability (% RE) Post-Preparative” value in series [1] (medium QC) was −2.98 % RE. In series [3], the “Shape” value is listed as “conspicuous bimodal phenomenon”, the “Time of first peak of plasma concentration-time profile” value was in the range of 0.5 to 1 h, the “Time of second peak of plasma concentration-time profile” value lay within 4 to 8 h and the AUC(0-inf) turned out to be 755 ± 58.9 ng·h/mL. In addition, in series [3], the AUC(0-t) was found to be 734 ± 57.5 ng·h/mL, the Cmax is 224 ± 15.3 ng/mL, the Tmax stood at 0.96 ± 0.1 h and the half-life was 4.25 ± 0.81 h.
For `COc1cc2c(cc1OC)-c1cc3ccc(OC)c(OC)c3c[n+]1CC2` [Palmatine, palmatine], in series [1] (high QC in beagle plasma), the “Stability (% RE) Long-Term” value is on record as 11.04 % RE, the “Stability (% RE) Short-Term” value worked out at 6.73 % RE and the “Stability (% RE) Freeze-Thaw” value amounted to 8.37 % RE. The “Stability (% RE) Post-Preparative” value in series [1] (high QC) is recorded as −7.08 % RE. Also, in series [1] (low QC in beagle plasma), the “Stability (% RE) Long-Term” value worked out at 7.79 % RE, the “Stability (% RE) Short-Term” value is 9.42 % RE and the “Stability (% RE) Freeze-Thaw” value was 10.26 % RE. Besides, the “Stability (% RE) Post-Preparative” value in series [1] (low QC) came to 6.92 % RE. Further, in series [1] (medium QC in beagle plasma), the “Stability (% RE) Long-Term” value came out at 10.77 % RE, the “Stability (% RE) Short-Term” value was −6.30 % RE and the “Stability (% RE) Freeze-Thaw” value came out at 8.08 % RE. Moreover, the “Stability (% RE) Post-Preparative” value in series [1] (medium QC) was found to be 9.22 % RE. In addition, in series [3], the “Shape” value is “conspicuous bimodal phenomenon”, the “Time of first peak of plasma concentration-time profile” value lay within 0.5 to 1 h, the “Time of second peak of plasma concentration-time profile” value fell in the range of 4 to 8 h and the AUC(0-inf) came out at 9580 ± 596 ng·h/mL. Also, in series [3], the AUC(0-t) came to 8040 ± 459 ng·h/mL, the highest level (Cmax) was 1900 ± 84.9 ng/mL, the time to peak (Tmax) came out at 0.96 ± 0.1 h and the half-life was 8.56 ± 1.29 h.

A word on the AUC(0-inf): it is total exposure, with the tail of the curve extrapolated. Low readings indicate less exposure, high ones more exposure. A word on the AUC(0-t): it is exposure summed from dosing to a finite time, without extrapolation to infinity. In general, Cmax refers to the highest concentration seen after dosing. For orientation: Tmax means the time at which the peak concentration occurs. As a reminder, the half-life is the time in which the quantity being followed falls by half. A lower half-life goes with rapid decline.
